Target: T1, human GluR2B receptor (Homo sapiens, UniProt P42262)
T1 construct: transported to the cell surface in mature form, lacking the signal peptide and consisting of 862 amino acids; expressed in transfected cells; host or cells: COS-1 (ATCC CRL 1650), transient, plasmid pcDNA1/humGluR2B
Test: ligand binding assay (NMDA) with membranes of cells producing human GluR2B
Settings: method for NMDA not described

T1 sequence (P42262 25-883): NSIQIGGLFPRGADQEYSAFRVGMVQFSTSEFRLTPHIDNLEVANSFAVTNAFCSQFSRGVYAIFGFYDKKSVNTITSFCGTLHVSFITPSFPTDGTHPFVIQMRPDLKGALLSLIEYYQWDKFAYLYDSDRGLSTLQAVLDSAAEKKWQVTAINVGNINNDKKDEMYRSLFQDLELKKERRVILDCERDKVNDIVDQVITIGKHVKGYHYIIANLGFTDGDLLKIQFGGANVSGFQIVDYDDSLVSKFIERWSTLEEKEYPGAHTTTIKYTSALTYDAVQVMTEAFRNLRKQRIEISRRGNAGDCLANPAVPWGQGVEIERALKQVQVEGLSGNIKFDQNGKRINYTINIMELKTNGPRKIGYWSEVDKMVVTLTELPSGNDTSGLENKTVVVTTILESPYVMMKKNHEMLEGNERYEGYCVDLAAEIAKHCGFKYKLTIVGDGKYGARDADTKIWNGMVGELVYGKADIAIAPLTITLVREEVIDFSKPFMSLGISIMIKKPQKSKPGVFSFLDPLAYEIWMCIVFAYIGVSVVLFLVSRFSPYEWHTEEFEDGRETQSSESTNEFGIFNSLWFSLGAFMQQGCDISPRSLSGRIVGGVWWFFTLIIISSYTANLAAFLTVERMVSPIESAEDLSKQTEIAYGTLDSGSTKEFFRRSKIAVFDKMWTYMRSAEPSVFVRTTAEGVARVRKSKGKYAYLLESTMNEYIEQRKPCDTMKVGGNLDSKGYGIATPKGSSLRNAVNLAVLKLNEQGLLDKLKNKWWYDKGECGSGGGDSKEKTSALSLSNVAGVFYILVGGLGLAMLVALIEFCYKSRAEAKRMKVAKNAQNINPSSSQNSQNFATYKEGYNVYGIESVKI

CN[C@H](CC(=O)O)C(=O)O [NMDA, N-methyl-D-aspartate]
binding to human GluR2B receptor (in words): little or no demonstrable binding

— patent publication US6399313B1, “AMPA-binding human GluR2 receptors” (NPS Allelix Corp., priority 1992, dated 2002)
